# In PubChem BioAssay (NCI):
#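 Compound exposure: 48 hours, 5 concentrations, 96-well plates. At the GI50, growth is halved. TGI denotes the concentration required for complete inhibition of growth.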
# Experiments:
# Test in all cases: DTP human tumour cell line panel, 48 h
# [1] = tested on: 786-0 renal
# [2] = tested on: A498 renal
# [3] = tested on: A549 NSCLC
# [4] = tested on: ACHN renal
# [5] = tested on: BT-549 breast
# [6] = tested on: CAKI-1 renal
# [7] = tested on: CCRF-CEM leukemia
# [8] = tested on: COLO 205 colon
# [9] = tested on: DU-145 prostate
# [10] = tested on: EKVX NSCLC
# [11] = tested on: HCC-2998 colon
# [12] = tested on: HCT-116 colon
# [13] = tested on: HCT-15 colon
# [14] = tested on: HL-60(TB) leukemia
# [15] = tested on: HOP-62 NSCLC
# [16] = tested on: HOP-92 NSCLC
# [17] = tested on: HS 578T breast
# [18] = tested on: HT29 colon
# [19] = tested on: IGROV1 ovarian
# [20] = tested on: K-562 leukemia
# [21] = tested on: KM12 colon
# [22] = tested on: LOX IMVI melanoma
# [23] = tested on: M14 melanoma
# [24] = tested on: MALME-3M melanoma
# [25] = tested on: MCF7 breast
# [26] = tested on: MDA-MB-231 breast
# [27] = tested on: MDA-MB-435
# [28] = tested on: MOLT-4 leukemia
# [29] = tested on: NCI-H226 lung
structure (smiles),measurement,setting,value
COc1cccc(CC(C)=C(c2ccc(OCCN3CCCCC3)cc2)c2ccc(OCCN3CCCCC3)cc2)c1,GI50,[1],1870 nM
same,TGI,[1],3890 nM
same,GI50,[2],1750 nM
same,TGI,[2],3720 nM
same,GI50,[3],2200 nM
same,TGI,[3],4350 nM
same,GI50,[4],2160 nM
same,TGI,[4],4070 nM
same,GI50,[5],1930 nM
same,TGI,[5],3820 nM
same,GI50,[6],2300 nM
same,TGI,[6],4290 nM
same,GI50,[7],1710 nM
same,TGI,[7],4730 nM
same,GI50,[8],1410 nM
same,TGI,[8],3730 nM
same,GI50,[9],2110 nM
same,TGI,[9],4260 nM
same,GI50,[10],2030 nM
same,TGI,[10],4480 nM
same,GI50,[11],1740 nM
same,TGI,[11],3720 nM
same,GI50,[12],2250 nM
same,TGI,[12],4260 nM
same,GI50,[13],992 nM
same,TGI,[13],2990 nM
same,GI50,[14],1780 nM
same,TGI,[14],4120 nM
same,GI50,[15],2080 nM
same,TGI,[15],4210 nM
same,GI50,[16],612 nM
same,TGI,[16],2590 nM
same,GI50,[17],1520 nM
same,TGI,[17],4020 nM
same,GI50,[18],820 nM
same,TGI,[18],2790 nM
same,GI50,[19],1890 nM
same,TGI,[19],3990 nM
same,GI50,[20],315 nM
same,TGI,[20],802 nM
same,GI50,[21],1930 nM
same,TGI,[21],4110 nM
same,GI50,[22],1640 nM
same,TGI,[22],3520 nM
same,GI50,[23],1670 nM
same,TGI,[23],3760 nM
same,GI50,[24],1840 nM
same,TGI,[24],3810 nM
same,GI50,[25],728 nM
same,TGI,[25],2810 nM
same,GI50,[26],1920 nM
same,TGI,[26],4020 nM
same,GI50,[27],1670 nM
same,TGI,[27],3570 nM
same,GI50,[28],1500 nM
same,TGI,[28],4010 nM
same,GI50,[29],2330 nM
same,TGI,[29],5120 nM
